These results are taken from patent US20240270821A1, “GIP/GLP1/GCG TRI-RECEPTOR AGONISTS AND USES THEREOF” (priority 2023, published 2024).

Data set [1] relates to Intestinal organoid from Göttingen minipig jejunum tissue, 2D monolayer. The experiment in a line: Cell based in vitro permeability (Papp) assay. The data set is classed as in vitro ADME. As to the method:
Intestinal organoid from Göttingen minipig jejunum tissue and its 2D monolayer are generated using the protocol previously described ([…]-Thiele, […].; Wells, J. M., Optimized procedures for generating an enhanced, near physiological 2D culture system from porcine intestinal organoids. […] After 7 days of culture, organoids are dissociated into single cells by TrypLE (GIbco), and the single cell suspension is added in 24-well transparent transwell inserts (0.3 cm^2, Falcon, BD). […] Samples from the basal compartment are collected at 20 min in the presence of C10. Peptide concentrations in the apical and basal compartments are measured by LC/MS, and the apparent permeability coefficient (Papp) is calculated as previously described (Twarog, C.; Liu, K.; O'Brien, P. J.; Dawson, […] head-to-head Caco-2 assay comparison of the mechanisms of action of the intestinal permeation enhancers: SNAC and sodium caprate (C10).

The target of a further data set is hGcgR (Homo sapiens, UniProt P47871). Description: Functional cAMP activation in the presence of 0.1% casein (no HSA). Conditions: read-out: Relative cAMP EC50, hGcgR. The data set is classed as cell-based.
Data set [2] addresses T1, hGLP-1R (Homo sapiens, UniProt P43220). Description: Functional cAMP activity in the presence of 1% HSA. In kind it is cell-based. To be noted: read-out: cAMP Rel EC50, hGLP-1R.
The target of data set [3] is T1, hGLP-1R. Description: Functional cAMP activation in the presence of 0.1% casein (no HSA). In kind it is cell-based. Conditions: read-out: Relative cAMP EC50, hGLP-1R.
The target in data set [4] is T2, hGIPR (Homo sapiens, UniProt P48546).
T2 sequence (P48546 22-466): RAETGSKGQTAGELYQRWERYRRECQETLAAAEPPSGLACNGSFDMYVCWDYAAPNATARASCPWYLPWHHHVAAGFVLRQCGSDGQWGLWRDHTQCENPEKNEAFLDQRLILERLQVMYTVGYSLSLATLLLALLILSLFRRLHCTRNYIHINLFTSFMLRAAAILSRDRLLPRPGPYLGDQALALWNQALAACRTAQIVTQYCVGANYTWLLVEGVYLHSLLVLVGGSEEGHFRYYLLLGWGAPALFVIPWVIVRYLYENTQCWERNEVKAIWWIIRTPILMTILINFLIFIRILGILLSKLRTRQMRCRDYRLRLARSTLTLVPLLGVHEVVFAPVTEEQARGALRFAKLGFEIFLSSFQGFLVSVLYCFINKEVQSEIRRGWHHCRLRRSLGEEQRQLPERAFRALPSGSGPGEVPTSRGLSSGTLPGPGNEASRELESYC
The description is as above. The data set is classed as cell-based. To be noted: read-out: Relative cAMP EC50, hGIPR.

For another data set, the target named is human GcgR (Homo sapiens, UniProt P47871). Description: Functional cAMP activity in the presence of 1% HSA. The data set is classed as cell-based. Conditions: read-out: cAMP Rel EC50, hGcgR.
Data set [5] addresses T2, hGIPR. The experiment in a line: Functional cAMP activity in the presence of 1% HSA. In kind it is cell-based. To be noted: read-out: cAMP Rel EC50, hGIPR.
Where [6] appears, read: in the presence of 0.1% casein (no HSA), geometric mean.

Like-named read-outs stand apart in the source and are kept apart here. Starred links: 1 amine or outer side, 2 acyl side, 3 side chain; linkers in the order of their positions; H or OH if unused. Non-standard residues stand in square brackets, D forms with d. Groups on a side chain read outwards from the residue. No end group written: not given here. *: point of attachment. C18 diacid = O=C(O)CCCCCCCCCCCCCCCCC(=O)*; αMePhe(2-F) = C[C@](N)(Cc1ccccc1F)C(=O)O; γGlu = O=C(O)[C@H](CCC(=O)[*:2])N[*:1]; αMe4Pal = C[C@](N)(Cc1ccncc1)C(=O)O; αMeY = C[C@](N)(Cc1ccc(O)cc1)C(=O)O; 4Pal = N[C@@H](Cc1ccncc1)C(=O)O; αMeL = CC(C)C[C@](C)(N)C(=O)O; αMeS = C[C@](N)(CO)C(=O)O; Orn = NCCC[C@H](N)C(=O)O; AEEA = NCCOCCOCC(=O)O; Aib = CC(C)(N)C(=O)O
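Wherever Relative cAMP EC50, hGIPR is given: intracellular cAMP rise after 30 min at 37 °C read by HTRF against a standard curve, scaled between buffer alone (0%) and top control ligand concentration (100%), four-parameter fit.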
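Wherever Relative cAMP EC50, hGLP-1R is given: intracellular cAMP rise after 30 min at 37 °C read by HTRF, normalized between buffer only (0%) and maximal control ligand (100%), four-parameter variable-slope fit.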
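Wherever Relative cAMP EC50, hGcgR is given: intracellular cAMP rise after 30 min at 37 °C, read by HTRF against a cAMP standard curve, scaled from buffer only (0%) to maximal control ligand response (100%).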

Sequence of human GcgR (P47871 26-477): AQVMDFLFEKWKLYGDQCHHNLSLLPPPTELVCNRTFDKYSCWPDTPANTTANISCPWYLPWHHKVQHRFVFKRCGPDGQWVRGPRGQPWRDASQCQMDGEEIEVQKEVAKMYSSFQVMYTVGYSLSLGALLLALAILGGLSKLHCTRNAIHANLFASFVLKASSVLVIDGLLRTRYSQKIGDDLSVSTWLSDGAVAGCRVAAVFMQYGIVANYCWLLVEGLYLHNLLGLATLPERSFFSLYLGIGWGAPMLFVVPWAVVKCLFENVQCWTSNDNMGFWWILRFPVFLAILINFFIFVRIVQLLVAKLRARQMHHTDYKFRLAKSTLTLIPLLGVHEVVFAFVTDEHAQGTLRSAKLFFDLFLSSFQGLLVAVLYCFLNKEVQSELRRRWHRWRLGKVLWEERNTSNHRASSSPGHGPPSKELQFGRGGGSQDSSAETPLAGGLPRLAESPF
Sequence of hGcgR (P47871 26-477): as above
T1 sequence (P43220 24-463): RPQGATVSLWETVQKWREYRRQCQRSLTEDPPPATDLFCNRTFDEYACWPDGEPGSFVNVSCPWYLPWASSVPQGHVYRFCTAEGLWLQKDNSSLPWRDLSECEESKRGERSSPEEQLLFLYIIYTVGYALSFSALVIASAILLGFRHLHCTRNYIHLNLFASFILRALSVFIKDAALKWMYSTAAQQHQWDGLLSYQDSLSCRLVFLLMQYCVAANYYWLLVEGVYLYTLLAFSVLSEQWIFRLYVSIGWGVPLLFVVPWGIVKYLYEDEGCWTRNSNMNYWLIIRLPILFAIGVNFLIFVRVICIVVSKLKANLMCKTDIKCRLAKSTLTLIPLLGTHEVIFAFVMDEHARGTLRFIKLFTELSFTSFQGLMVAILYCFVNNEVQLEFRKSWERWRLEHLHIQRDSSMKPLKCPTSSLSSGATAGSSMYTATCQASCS

What is called EC50 is the concentration giving half of the maximal effect. Regarding `CC[C@H](C)[C@H](NC(=O)[C@H](Cc1ccccc1)NC(=O)[C@H](CCCN)NC(=O)C(C)(C)NC(=O)[C@H](CCC(N)=O)NC(=O)[C@H](C)NC(=O)[C@H](CCCCNC(=O)[C@@H](CCC(=O)O)NC(=O)CC[C@H](NC(=O)CCCCCCCCCCCCCCCCC(=O)O)C(=O)O)NC(=O)[C@H](CCCN)NC(=O)[C@H](CC(=O)O)NC(=O)[C@H](CC(C)C)NC(=O)[C@](C)(CC(C)C)NC(=O)[C@@H](NC(=O)[C@](C)(CO)NC(=O)[C@H](Cc1ccncc1)NC(=O)[C@H](CC(=O)O)NC(=O)[C@H](CO)NC(=O)[C@@H](NC(=O)[C@](C)(Cc1ccccc1F)NC(=O)[C@@H](NC(=O)CNC(=O)[C@H](CCC(N)=O)NC(=O)C(C)(C)NC(=O)[C@@H](N)Cc1ccc(O)cc1)[C@@H](C)O)[C@@H](C)O)[C@@H](C)CC)C(=O)N[C@H](CCC(=O)O)C(=O)N[C@@](C)(Cc1ccc(O)cc1)C(=O)N[C@@H](CC(C)C)C(=O)N[C@@H](CCC(N)=O)C(=O)N[C@@H](CCC(=O)O)C(=O)NCC(=O)NCC(=O)N1CCC[C@H]1C(=O)N[C@@H](CO)C(=O)N[C@@H](CO)C(=O)NCC(=O)N[C@@H](CCC(=O)O)C(=O)N1CCC[C@H]1C(=O)N1CCC[C@H]1C(=O)N1CCC[C@H]1C(=O)N[C@@H](CCC(=O)O)C(=O)NCC(=O)N[C@H](C(=O)N[C@@H](CCC(=O)O)C(=O)N[C@@H](CCC(=O)O)C(N)=O)[C@@H](C)O` [Example 595], the “Relative Papp (Compared to internal standard)” value (from here on “Relative Papp”) in data set [1] worked out at 0.55. For the same molecule, the EC50 came out at 5.06 nM at hGcgR; 30.4 nM on hGLP-1R [2]; 0.53 nM at hGLP-1R [3]; 0.0338 nM at hGIPR [4]; 353 nM at human GcgR; 1.73 nM at hGIPR [5].
For “H-Y[Aib]QGTFTSDFS[Orn][αMeL]LDKK([AEEA-AEEA-γGlu-C18 diacid])AQ[Aib]AFIEYLLE[Aib]GHSSGAPPPSGT-NH2 [Example 182]”, the “Relative Papp” value in data set [1] was determined as 0.12. In addition, the EC50 at hGcgR (setting [6]) was found to be 5.33 nM; at hGLP-1R [2], 398 nM; on hGLP-1R [3] (setting [6]), 4.8 nM; at hGIPR [4] (setting [6]) it was 0.0781 nM; at human GcgR it was 1480 nM; at hGIPR [5] it was 9.95 nM.
Take “H-Y[Aib]QGTFTSDFS[Orn][αMeL]LDKK([AEEA-γGlu-C18 diacid])AQ[Aib]AFIEYLLEGGPSSGAPPPEGS-NH2 [Example 130]”: the “Relative Papp” value in data set [1] is listed as 0.06. The EC50 is 3.74 nM at hGcgR (setting [6]); 865 nM at hGLP-1R [2]; 4.29 nM at hGLP-1R [3] (setting [6]); 0.411 nM at hGIPR [4] (setting [6]); 1080 nM at human GcgR; 60.5 nM on hGIPR [5].
Consider “H-Y[Aib]QGTFTSDFS[Orn][αMeL]LDKK([γGlu-γGlu-C18 diacid])AQ[Aib]AFIEYLLEGGPSSGAPPPGGS-NH2 [Example 198]”, for which, in data set [1], the “Relative Papp” value is listed as 0.12. For the same molecule, the half-maximal effective concentration (EC50) at hGcgR (setting [6]) was 6.85 nM; on hGLP-1R [2] it was 761 nM; at hGLP-1R [3] (setting [6]), 4.36 nM; on hGIPR [4] (setting [6]), 0.182 nM; at human GcgR, 1300 nM; on hGIPR [5], 38.8 nM.
On to “H-Y[Aib]QGTFTSD[4Pal]S[Orn][αMeL]LDKK([AEEA-γGlu-C18 diacid])AQ[αMe4Pal]AFIEYLIE[Aib]GPSSGAPPPSGS-NH2 [Example 808]”, for which, in data set [1], the “Relative Papp” value is given as 0.29. In addition, the EC50 at hGcgR (setting [6]) came out at 1.65 nM; on hGLP-1R [2] it was 406 nM; on hGLP-1R [3] (setting [6]) it was 3.58 nM; at hGIPR [4] (setting [6]), 0.187 nM; at human GcgR it was 286 nM; on hGIPR [5], 27.3 nM.
For the molecule “H-Y[Aib]QGT[αMePhe(2-F)]TSD[4Pal]SILLDKK([γGlu-γGlu-C18 diacid])AQ[Aib]AFIE[αMe4Pal]LEEGGPSSGAPPPSGTE-NH2 [Example 552]”, in data set [1], the “Relative Papp” value turned out to be 0.53. In addition, the EC50 at hGcgR was 2.53 nM; on hGLP-1R [2], 86.2 nM; at hGLP-1R [3], 0.804 nM; on hGIPR [4] it was 0.0177 nM; at human GcgR it was 289 nM; on hGIPR [5], 1.67 nM.
As to “H-Y[Aib]QGT[αMePhe(2-F)]TSD[4Pal]SILLDKK([γGlu-γGlu-C18 diacid])AQ[Aib]AFIE[αMeY]LEEGGPSSGAPPPSGSGE-NH2 [Example 666]”, the “Relative Papp” value in data set [1] is listed as 0.85. In addition, the EC50 on hGcgR was 2 nM; on hGLP-1R [2] it was 32.3 nM; at hGLP-1R [3], 0.337 nM; at hGIPR [4], 0.0203 nM; at human GcgR, 224 nM; at hGIPR [5] it was 1.39 nM.
In the case of “H-Y[Aib]QGT[αMePhe(2-F)]TSD[4Pal]SI[αMeL]LD[Orn]K([AEEA-γGlu-C18 diacid])AQ[αMe4Pal][Orn]FI[dE][αMeY]LIEGGPSSGEPPPEGE-NH2 [Example 675]”, the “Relative Papp” value in data set [1] amounted to 0.36. The EC50 worked out at 2.15 nM on hGcgR; 25 nM on hGLP-1R [2]; 0.254 nM on hGLP-1R [3]; 0.0111 nM on hGIPR [4]; 207 nM at human GcgR; 1.16 nM at hGIPR [5].
With “H-Y[Aib]QGT[αMePhe(2-F)]TSD[4Pal][αMeS]I[αMeL]LD[Orn]K([AEEA-γGlu-C18 diacid])AQ[αMe4Pal]EFI[dE][αMeY]LIEGGPSSGEPPPSGS-NH2 [Example 710]”, in data set [1], the “Relative Papp” value was found to be 0.35. The EC50 stood at 1.52 nM at hGcgR; 28.7 nM on hGLP-1R [2]; 0.274 nM at hGLP-1R [3]; 0.00578 nM on hGIPR [4]; 126 nM on human GcgR; 0.589 nM on hGIPR [5].
Consider “H-Y[Aib]QGT[αMePhe(2-F)]TSD[4Pal][αMeS]I[αMeL]LD[Orn]K([γGlu-γGlu-C18 diacid])AQ[αMe4Pal]EFI[dE][αMeY]LIEGGPSSGAPPPEGGGE-NH2 [Example 761]”, for which, in data set [1], the “Relative Papp” value was 0.53. In addition, the concentration for a half-maximal effect (EC50) on hGcgR worked out at 1.5 nM; at hGLP-1R [2] it was 26.1 nM; at hGLP-1R [3], 0.226 nM; on hGIPR [4] it was 0.00686 nM; at human GcgR, 162 nM; on hGIPR [5], 0.635 nM.
In the case of “H-Y[Aib]QGT[αMePhe(2-F)]TSD[4Pal][αMeS]I[αMeL]LD[Orn]K([γGlu-γGlu-C18 diacid])AQ[αMe4Pal]EFI[dE][αMeY]LIEGGPSSGAPPPSGGGE-NH2 [Example 743]”, the “Relative Papp” value in data set [1] stood at 0.56. In addition, the EC50 was found to be 1.49 nM at hGcgR; 21.2 nM at hGLP-1R [2]; 0.259 nM on hGLP-1R [3]; 0.00694 nM on hGIPR [4]; 133 nM on human GcgR; 0.432 nM on hGIPR [5].
As for “H-Y[Aib]QGT[αMePhe(2-F)]TSD[4Pal][αMeS]I[αMeL]LD[Orn]K([γGlu-γGlu-C18 diacid])AQ[αMe4Pal]EFI[dE][αMeY]LVEGGPSSGEPPPSGS-NH2 [Example 737]”, the “Relative Papp” value in data set [1] came to 0.69. Further, the EC50 on hGcgR amounted to 1.34 nM; on hGLP-1R [2], 22.3 nM; at hGLP-1R [3], 0.285 nM; on hGIPR [4] it was 0.00804 nM; at human GcgR, 122 nM; on hGIPR [5], 0.498 nM.
“Y[Aib]QGTFTSDFS[Orn][αMeL]LDKK([AEEA-γGlu-C18 diacid])AQ[Aib]AFIEYLLE[dA]GPSSGEPPPSGE-NH2 [Example 135]”: in data set [1], the “Relative Papp” value came out at 0.04. For the same molecule, the EC50 at hGcgR (setting [6]) was 2.53 nM; at hGLP-1R [2] it was 472 nM; on hGLP-1R [3] (setting [6]) it was 3.3 nM; at hGIPR [4] (setting [6]), 0.246 nM; at human GcgR, 557 nM; at hGIPR [5] it was 23.4 nM.
